Values quoted from earlier work in patent publication US20030195171A1 (priority 2002, published 2003).

Tests used:
vitamin D receptor = molecular target: T1, vitamin D receptor (Homo sapiens, UniProt P11473); details: relative to 1α,25-dihydroxy-cholecalciferol
T1 sequence (P11473 1-427): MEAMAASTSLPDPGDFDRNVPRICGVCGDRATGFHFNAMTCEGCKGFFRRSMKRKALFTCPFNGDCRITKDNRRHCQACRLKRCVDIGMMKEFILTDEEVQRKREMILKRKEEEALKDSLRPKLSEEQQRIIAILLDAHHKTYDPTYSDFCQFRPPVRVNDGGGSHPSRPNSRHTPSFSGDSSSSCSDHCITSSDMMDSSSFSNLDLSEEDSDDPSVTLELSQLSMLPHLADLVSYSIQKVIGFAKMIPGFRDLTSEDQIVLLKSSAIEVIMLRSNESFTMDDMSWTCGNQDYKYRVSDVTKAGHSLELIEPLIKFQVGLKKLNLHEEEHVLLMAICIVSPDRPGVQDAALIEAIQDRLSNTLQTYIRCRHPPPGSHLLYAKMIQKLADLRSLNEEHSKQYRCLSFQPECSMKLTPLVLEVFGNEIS

[1] = compared to placebo

Compound | Intrinsic activity, fold lower than that of 1α,25-dihydroxy-cholecalciferol (vitamin D receptor) | Decrease in the risk of vertebral fractures ([1]; administered over a substantial period of time) | Reduction in vertebral fracture rate per 100 patients ([1]; total number of vertebral fractures)
C=C1CC[C@H](O)C/C1=C/C=C1\CCC[C@]2(C)[C@@H]([C@H](C)CCCC(C)(C)O)CC[C@@H]12 [25-hydroxy-cholecalciferol] | about 100 fold |  | 
NCCCC(O)(P(=O)(O)O)P(=O)(O)O [alendronate, 4-Amino-1-hydroxybutylidene-1,1-bisphosphonic acid monosodium trihydrate] |  | at least 40% | at least 50%
